The results in this text go back to patent US20260232658A1, “AZETIDINYL BENZOXAZOLE COMPOUNDS AND THEIR USE AS MER AND AXL INHIBITORS” (DONG-A ST CO., LTD., priority 2022, published 2026).

One assay addresses T1, human MER (528-end) (Homo sapiens, UniProt Q12866).
T1 construct: human MER (528-end); purchased Carnabio, Japan
T1 sequence (Q12866 528-999 limits assumed): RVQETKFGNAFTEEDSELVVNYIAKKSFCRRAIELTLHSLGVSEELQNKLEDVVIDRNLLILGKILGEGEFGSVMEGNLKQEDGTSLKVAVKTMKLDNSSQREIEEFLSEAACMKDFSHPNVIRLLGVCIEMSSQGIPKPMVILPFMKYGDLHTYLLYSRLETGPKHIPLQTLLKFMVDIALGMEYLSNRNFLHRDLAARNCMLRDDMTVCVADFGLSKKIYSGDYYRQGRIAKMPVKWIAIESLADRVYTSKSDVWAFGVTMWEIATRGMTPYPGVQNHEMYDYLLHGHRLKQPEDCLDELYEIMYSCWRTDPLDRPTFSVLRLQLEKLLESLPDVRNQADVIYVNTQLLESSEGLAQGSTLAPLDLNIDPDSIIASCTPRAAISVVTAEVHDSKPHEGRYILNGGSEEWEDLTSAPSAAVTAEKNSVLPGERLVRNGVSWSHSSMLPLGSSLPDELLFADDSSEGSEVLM
Nature of the assay: HTRF kinase activity biochemical assay, MER.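 Also: phosphorylation of a biotin-tagged tyrosine kinase substrate detected by Eu3+-cryptate antibody and streptavidin-XL665 time-resolved fluorescence, read after 1 h at room temperature.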 The settings on record: recombinant kinase, 10 uM ATP, 30 minutes pre-incubation; read-out: HTRF MERTK IC50.

Another assay concerns the target T2, human AXL (473-end) (Homo sapiens, UniProt P30530).
T2 construct: human AXL (473-end); purchased SignalChem, Canada
T2 sequence (P30530 473-894 limits assumed): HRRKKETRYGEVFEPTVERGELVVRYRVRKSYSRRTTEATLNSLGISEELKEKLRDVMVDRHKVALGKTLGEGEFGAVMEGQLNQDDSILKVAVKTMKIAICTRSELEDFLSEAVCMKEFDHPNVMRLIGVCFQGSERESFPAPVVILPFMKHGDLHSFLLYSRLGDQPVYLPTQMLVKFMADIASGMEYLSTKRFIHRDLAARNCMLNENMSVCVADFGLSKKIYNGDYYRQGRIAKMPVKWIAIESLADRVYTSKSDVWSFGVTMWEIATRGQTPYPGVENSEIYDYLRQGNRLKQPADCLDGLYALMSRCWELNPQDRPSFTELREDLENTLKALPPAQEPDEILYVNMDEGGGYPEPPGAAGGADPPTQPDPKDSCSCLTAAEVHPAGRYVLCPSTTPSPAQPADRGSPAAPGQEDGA
Nature of the assay: HTRF kinase activity biochemical assay, AXL.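 Also: phosphorylation of a biotinylated tyrosine kinase substrate detected via Eu3+-cryptate anti-TK antibody and streptavidin-XL665, fluorescence read after a 1 h incubation at room temperature.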 The settings on record: recombinant kinase, 10 uM ATP, 30 minutes pre-incubation; read-out: HTRF AXL IC50. On the technique in general: TR-FRET usually uses a lanthanide donor and a delayed reading to cut background.

A further assay has as its target T3, TYRO3 (455-end) (Homo sapiens, UniProt Q06418).
T3 construct: TYRO3 (455-end); purchased SignalChem, Canada
T3 sequence (Q06418 455-890 limits assumed): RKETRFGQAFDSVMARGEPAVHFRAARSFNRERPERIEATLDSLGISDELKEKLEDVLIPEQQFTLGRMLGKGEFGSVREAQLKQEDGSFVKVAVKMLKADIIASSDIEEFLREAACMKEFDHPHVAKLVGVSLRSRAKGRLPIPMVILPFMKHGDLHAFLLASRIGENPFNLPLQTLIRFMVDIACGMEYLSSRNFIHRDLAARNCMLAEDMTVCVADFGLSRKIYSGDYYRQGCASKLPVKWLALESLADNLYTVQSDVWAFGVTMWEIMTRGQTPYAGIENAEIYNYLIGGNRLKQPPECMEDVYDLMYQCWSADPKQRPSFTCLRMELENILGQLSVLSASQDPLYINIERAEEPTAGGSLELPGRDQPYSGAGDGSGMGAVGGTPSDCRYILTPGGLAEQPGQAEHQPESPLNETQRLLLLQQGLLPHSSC
Nature of the assay: HTRF kinase activity biochemical assay, TYRO3.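 Also: biotinylated tyrosine kinase substrate phosphorylation detected via streptavidin-XL665 and Eu3+-cryptate anti-phospho antibody time-resolved fluorescence, read after 1 h detection at room temperature, 384-well format.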 The settings on record: recombinant kinase, 10 uM ATP, 30 minutes pre-incubation; read-out: HTRF TYRO IC50.

By IC50 is commonly meant the midpoint of a concentration-inhibition curve. With `CC(C)(O)CCOc1ccc2nc(N3CC(c4cnc(Nc5cn[nH]c5)c(C(N)=O)n4)C3)oc2c1` [Example 96B, 6-{1-[6-(3-hydroxy-3-methylbutoxy)-1,3-benzoxazol-2-yl]azetidin-3-yl}-3-[(1H-pyrazol-4-yl)amino]pyrazine-2-carboxamide], the IC50 stood at 2 nM on human MER (528-end), 7 nM at human AXL (473-end) and 670 nM at TYRO3 (455-end).
In the same order, the values of `Cn1cc(COc2ccc3nc(N4CC(c5cnc(Nc6cnn(C)c6)c(C(N)=O)n5)C4)oc3c2)cn1` [Example 97, 3-[(1-methyl-1H-pyrazol-4-yl)amino]-6-(1-{6-[(1-methyl-1H-pyrazol-4-yl)methoxy]-1,3-benzoxazol-2-yl}azetidin-3-yl)pyrazine-2-carboxamide] are 1 nM, 4 nM and 150 nM.
Taken in the same sequence, the figures for `Cn1cnc(COc2ccc3nc(N4CC(c5cnc(Nc6cnn(C)c6)c(C(N)=O)n5)C4)oc3c2)c1` [Example 98, 6-(1-{6-[(1-methyl-1H-imidazol-4-yl)methoxy]-1,3-benzoxazol-2-yl}azetidin-3-yl)-3-[(1-methyl-1H-pyrazol-4-yl)amino]pyrazine-2-carboxamide] were 1.1 nM, 7 nM and 1280 nM.
With `Cc1ncc(-c2ccc3nc(N4CC(c5cnc(Nc6cnn(C)c6)c(C(N)=O)n5)C4)oc3c2)s1` [Example 99, 3-[(1-methyl-1H-pyrazol-4-yl)amino]-6-{1-[6-(2-methyl-1,3-thiazol-5-yl)-1,3-benzoxazol-2-yl]azetidin-3-yl}pyrazine-2-carboxamide], the figures for the IC50 at human MER (528-end), at human AXL (473-end) and on TYRO3 (455-end) were less than 1 nM, 1.6 nM and 24 nM, respectively.
For the molecule `COCCOc1ccc(-c2ccc3nc(N4CC(c5cnc(Nc6cnn(C)c6)c(C(N)=O)n5)C4)oc3c2)cc1` [Example 100, 6-(1-{6-[4-(2-methoxyethoxy)phenyl]-1,3-benzoxazol-2-yl}azetidin-3-yl)-3-[(1-methyl-1H-pyrazol-4-yl)amino]pyrazine-2-carboxamide], the figures for the IC50 on human MER (528-end), at human AXL (473-end) and at TYRO3 (455-end) were 1 nM, 4 nM and 120 nM, respectively.
In the case of `CCOC(C)(C)c1ccc2nc(N3CC(c4cnc(Nc5cnn(C)c5)c(C(N)=O)n4)C3)oc2c1` [Example 101, 6-{1-[6-(2-ethoxypropan-2-yl)-1,3-benzoxazol-2-yl]azetidin-3-yl}-3-[(1-methyl-1H-pyrazol-4-yl)amino]pyrazine-2-carboxamide], the IC50 at human MER (528-end) worked out at 8 nM; at human AXL (473-end), 12 nM; on TYRO3 (455-end), 1490 nM.
Taken in the same sequence, the figures for `COc1cnc(Oc2ccc3nc(N4CC(c5cnc(Nc6cnn(C)c6)c(C(N)=O)n5)C4)oc3c2)nc1` [Example 102, 6-(1-{6-[(5-methoxypyrimidin-2-yl)oxy]-1,3-benzoxazol-2-yl}azetidin-3-yl)-3-[(1-methyl-1H-pyrazol-4-yl)amino]pyrazine-2-carboxamide] were less than 1 nM, 2 nM and 100 nM.
In the same order, the values of `Cn1cc(Nc2ccc(C3CN(c4nc5ccc(Oc6cccnn6)cc5o4)C3)nc2C(N)=O)cn1` [Example 103, 3-[(1-methyl-1H-pyrazol-4-yl)amino]-6-(1-{6-[(pyridazin-3-yl)oxy]-1,3-benzoxazol-2-yl}azetidin-3-yl)pyridine-2-carboxamide] are less than 1 nM, 3 nM and 710 nM.
For the molecule `Cn1cc(Nc2ncc(C3CN(c4nc5ccc(OCc6cnn(CCO)c6)cc5o4)C3)nc2C(N)=O)cn1` [Example 104, 6-[1-(6-{[1-(2-hydroxyethyl)-1H-pyrazol-4-yl]methoxy}-1,3-benzoxazol-2-yl)azetidin-3-yl]-3-[(1-methyl-1H-pyrazol-4-yl)amino]pyrazine-2-carboxamide], the IC50 at human MER (528-end) came out at 8 nM; at human AXL (473-end), 59 nM; at TYRO3 (455-end), 3500 nM.
In the same order, the values of `CCOC(=O)Cn1cc(COc2ccc3nc(N4CC(c5cnc(Nc6cnn(C)c6)c(C(N)=O)n5)C4)oc3c2)cn1` [Example 104C, ethyl [4-({[2-(3-{6-carbamoyl-5-[(1-methyl-1H-pyrazol-4-yl)amino]pyrazin-2-yl}azetidin-1-yl)-1,3-benzoxazol-6-yl]oxy}methyl)-1H-pyrazol-1-yl]acetate] are 4 nM, 27 nM and 620 nM.
Taken in the same sequence, the figures for `Cn1cnc(-c2ccc3nc(N4CC(c5cnc(Nc6cnn(C)c6)c(C(N)=O)n5)C4)oc3c2)c1` [Example 105, 6-{1-[6-(1-methyl-1H-imidazol-4-yl)-1,3-benzoxazol-2-yl]azetidin-3-yl}-3-[(1-methyl-1H-pyrazol-4-yl)amino]pyrazine-2-carboxamide] were less than 1 nM, 5 nM and 53 nM.
Taken in the same sequence, the figures for `Cn1cc(Nc2ccc(C3CN(c4nc5ccc(OCC(C)(C)OP(=O)(O)O)cc5o4)C3)nc2C(N)=O)cn1` [Example 106, 1-{[2-(3-{6-carbamoyl-5-[(1-methyl-1H-pyrazol-4-yl)amino]pyridin-2-yl}azetidin-1-yl)-1,3-benzoxazol-6-yl]oxy}-2-methylpropan-2-yl dihydrogen phosphate] were 1.8 nM, 6 nM and 1070 nM.
`Cn1cc(Nc2ncc(C3CN(c4nc5ccc(OCC(C)(C)C#N)cc5o4)C3)nc2C(N)=O)cn1` [Example 107, 6-{1-[6-(2-cyano-2-methylpropoxy)-1,3-benzoxazol-2-yl]azetidin-3-yl}-3-[(1-methyl-1H-pyrazol-4-yl)amino]pyrazine-2-carboxamide]: the IC50 is less than 1 nM on human MER (528-end), 1.5 nM on human AXL (473-end) and 46 nM at TYRO3 (455-end).
Taken in the same sequence, the figures for `Cn1cc(Nc2ccc(C3CN(c4nc5ccc(OCC(C)(C)OC(=O)CN)cc5o4)C3)nc2C(N)=O)cn1` [Example 108, 1-{[2-(3-{6-carbamoyl-5-[(1-methyl-1H-pyrazol-4-yl)amino]pyridin-2-yl}azetidin-1-yl)-1,3-benzoxazol-6-yl]oxy}-2-methylpropan-2-yl glycinate] were less than 1 nM, 4 nM and 880 nM.
Taken in the same sequence, the figures for `Cn1cc(Nc2ccc(C3CN(c4nc5ccc(OCCC(C)(C)OP(=O)(O)O)cc5o4)C3)nc2C(N)=O)cn1` [Example 109, 4-{[2-(3-{6-carbamoyl-5-[(1-methyl-1H-pyrazol-4-yl)amino]pyridin-2-yl}azetidin-1-yl)-1,3-benzoxazol-6-yl]oxy}-2-methylbutan-2-yl dihydrogen phosphate] were 27 nM, 78 nM and 2200 nM.
For `Cn1cc(Nc2ccc(C3CN(c4nc5ccc(OCCC(C)(C)OC(=O)CN)cc5o4)C3)nc2C(N)=O)cn1` [Example 110, 4-{[2-(3-{6-carbamoyl-5-[(1-methyl-1H-pyrazol-4-yl)amino]pyridin-2-yl}azetidin-1-yl)-1,3-benzoxazol-6-yl]oxy}-2-methylbutan-2-yl glycinate], the IC50 on human MER (528-end) is less than 1 nM; at human AXL (473-end) it was 1.8 nM; on TYRO3 (455-end), 280 nM.
In the same order, the values of `Cn1cc(Nc2ncc(C3CN(c4nc5ccc(C(C)(C)CO)cc5o4)C3)nc2C(N)=O)cn1` [Example 111, 6-{1-[6-(1-hydroxy-2-methylpropan-2-yl)-1,3-benzoxazol-2-yl]azetidin-3-yl}-3-[(1-methyl-1H-pyrazol-4-yl)amino]pyrazine-2-carboxamide] are 5 nM, 6 nM and 640 nM.
